The source of these data is patent US10961231B2, “NTCP inhibitors” (National Institute of Biological Sciences, Beijing, priority 2018, dated 2021).

In one assay the target is T1, NTCP (Homo sapiens, UniProt Q14973).
T1 sequence (Q14973 1-349): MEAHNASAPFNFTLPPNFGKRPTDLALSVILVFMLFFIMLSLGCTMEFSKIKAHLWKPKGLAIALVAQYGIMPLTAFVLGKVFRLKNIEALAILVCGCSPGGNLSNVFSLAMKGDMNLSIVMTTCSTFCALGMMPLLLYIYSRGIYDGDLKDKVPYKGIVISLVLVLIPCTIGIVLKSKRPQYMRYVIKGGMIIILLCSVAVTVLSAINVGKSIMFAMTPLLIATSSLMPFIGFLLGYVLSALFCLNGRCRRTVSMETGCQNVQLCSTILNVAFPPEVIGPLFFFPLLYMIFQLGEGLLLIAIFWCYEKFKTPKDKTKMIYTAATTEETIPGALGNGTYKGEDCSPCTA
As to the kind of experiment: [3H]-TCA uptake assay (NTCP inhibition). The format is cell-based. The conditions noted are these: IC50, given as a range, marked * (asterisk not explained). On the procedure:
[^3H]-TCA uptake assay. PTH and HepG2-NTCP cells were cultured in PMM for 24 hours to induce NTCP expression. After treated by DMSO or test compounds for 2 hours, the cells were then incubated with 1 μM [^3H]-taurocholate acid dissolved in Na^+ Ringer's buffer (the concentration of Na was 145 mM) for 15 minutes at 37° C. Subsequently, the cells were washed once in phosphate-buffered saline (PBS) and lysed in 50 μL 1% TritonX-100 in H2O for 5 minutes at room temperature. The lysate were totally transferred into a liquid scintillation 96 well plate and mixed with 200 μL liquid scintillation cocktail (Ultima Gold XR, PerkinElmer). Liquid scintillation counting was performed on a PerkinElmer 1450 LSC liquid scintillation counter.
What is called IC50 is the midpoint of a concentration-inhibition curve. In the case of `CCC1NC(=O)C(C2OC(Sc3cccc(OCCN(C)C)c3)CC2C)N(C)C(=O)C(C(C)C)N(C)C(=O)C(CC(C)C)N(C)C(=O)C(CC(C)C)N(C)C(=O)C(C)NC(=O)C(C)NC(=O)C(CC(C)C)N(C)C(=O)C(C(C)C)NC(=O)C(CC(C)C)N(C)C(=O)CN(C)C1=O` [Compound 14A, [2-((2R,3R)-5-(3-(2-(dimethylamino)ethoxy)phenylthio)-3-methyltetrahydrofuran-2-yl)-2-(methylamino)acetic acid]^1-cyclosporin A], the IC50 was in the range of 1 to 100 µM.

For `CCC1NC(=O)C(C2OC(Oc3cccc(OCCN(C)C)c3)CC2C)N(C)C(=O)C(C(C)C)N(C)C(=O)C(CC(C)C)N(C)C(=O)C(CC(C)C)N(C)C(=O)C(C)NC(=O)C(C)NC(=O)C(CC(C)C)N(C)C(=O)C(C(C)C)NC(=O)C(CC(C)C)N(C)C(=O)CN(C)C1=O` (centres unmarked) [Compound 14A-o], the half-inhibitory concentration (IC50) lay in the range of 1 to 100 µM.

For `CCC1NC(=O)C(C2OC(Oc3cccc(OCc4ccccc4F)c3)CC2C)N(C)C(=O)C(C(C)C)N(C)C(=O)C(CC(C)C)N(C)C(=O)C(CC(C)C)N(C)C(=O)C(C)NC(=O)C(C)NC(=O)C(CC(C)C)N(C)C(=O)C(C(C)C)NC(=O)C(CC(C)C)N(C)C(=O)CN(C)C1=O` (centres unmarked) [Compound 19A-o], the IC50 is 1 to 100 µM. `CCC1NC(=O)C(C2OC(Oc3cccc(OCc4cccc(F)c4)c3)CC2C)N(C)C(=O)C(C(C)C)N(C)C(=O)C(CC(C)C)N(C)C(=O)C(CC(C)C)N(C)C(=O)C(C)NC(=O)C(C)NC(=O)C(CC(C)C)N(C)C(=O)C(C(C)C)NC(=O)C(CC(C)C)N(C)C(=O)CN(C)C1=O` (centres unmarked) [Compound 20A-o] showed an IC50 of 1 to 100 µM. On the same count and under the same terms, to `CCC1NC(=O)C(C2OC(Oc3cccc(OCc4ccc(F)cc4)c3)CC2C)N(C)C(=O)C(C(C)C)N(C)C(=O)C(CC(C)C)N(C)C(=O)C(CC(C)C)N(C)C(=O)C(C)NC(=O)C(C)NC(=O)C(CC(C)C)N(C)C(=O)C(C(C)C)NC(=O)C(CC(C)C)N(C)C(=O)CN(C)C1=O` (centres unmarked) [Compound 21A-o] belongs 1 to 100 µM.

Still in this assay, the particulars now being: IC50, given as a range; assay not given.
The compound `CCC1NC(=O)C(C2OC(Sc3cccc(OCCC4CCCN4C)c3)CC2C)N(C)C(=O)C(C(C)C)N(C)C(=O)C(CC(C)C)N(C)C(=O)C(CC(C)C)N(C)C(=O)C(C)NC(=O)C(C)NC(=O)C(CC(C)C)N(C)C(=O)C(C(C)C)NC(=O)C(CC(C)C)N(C)C(=O)CN(C)C1=O` [Compound 15A, [2-((2R,3R)-3-methyl-5-(3-(2-(1-methylpyrrolidin-2-yl)ethoxy)phenylthio)tetrahydrofuran-2-yl)-2-(methylamino)acetic acid]^1-cyclosporin A] had an IC50 of 1 to 10 µM.

Still in this assay, the particulars now being: given as a range, marked * (asterisk not explained).
`CCC1NC(=O)C(C2OC(Oc3cc(OCCOC)cc(OCc4ccccc4)c3)CC2C)N(C)C(=O)C(C(C)C)N(C)C(=O)C(CC(C)C)N(C)C(=O)C(CC(C)C)N(C)C(=O)C(C)NC(=O)C(C)NC(=O)C(CC(C)C)N(C)C(=O)C(C(C)C)NC(=O)C(CC(C)C)N(C)C(=O)CN(C)C1=O` (centres unmarked) [Compound 11-0]: the IC50 lay in the range of 1 to 100 µM. As to `CCC1NC(=O)C(C2OC(Sc3cc(OCCOC)cc(OCc4ccccc4)c3)CC2C)N(C)C(=O)C(C(C)C)N(C)C(=O)C(CC(C)C)N(C)C(=O)C(CC(C)C)N(C)C(=O)C(C)NC(=O)C(C)NC(=O)C(CC(C)C)N(C)C(=O)C(C(C)C)NC(=O)C(CC(C)C)N(C)C(=O)CN(C)C1=O` (centres unmarked) [Compound 11], the IC50 was 1 to 100 µM. `CCC1NC(=O)C(C2OC(Oc3cccc(OCc4ccc(CN(C)C)cc4)c3)CC2C)N(C)C(=O)C(C(C)C)N(C)C(=O)C(CC(C)C)N(C)C(=O)C(CC(C)C)N(C)C(=O)C(C)NC(=O)C(C)NC(=O)C(CC(C)C)N(C)C(=O)C(C(C)C)NC(=O)C(CC(C)C)N(C)C(=O)CN(C)C1=O` (centres unmarked) [Compound 13A-o] registered a 50% inhibitory concentration (IC50) of 1 to 100 µM.

Compound `CCC1NC(=O)C(C2OC(Oc3cccc(OCc4ccn(C)c(=O)c4)c3)CC2C)N(C)C(=O)C(C(C)C)N(C)C(=O)C(CC(C)C)N(C)C(=O)C(CC(C)C)N(C)C(=O)C(C)NC(=O)C(C)NC(=O)C(CC(C)C)N(C)C(=O)C(C(C)C)NC(=O)C(CC(C)C)N(C)C(=O)CN(C)C1=O` (centres unmarked) [Compound 16A-o] showed an IC50 of 1 to 100 µM.

`CCC1NC(=O)C(C2OC(Oc3cccc(OCc4ccc(-n5cccn5)cc4)c3)CC2C)N(C)C(=O)C(C(C)C)N(C)C(=O)C(CC(C)C)N(C)C(=O)C(CC(C)C)N(C)C(=O)C(C)NC(=O)C(C)NC(=O)C(CC(C)C)N(C)C(=O)C(C(C)C)NC(=O)C(CC(C)C)N(C)C(=O)CN(C)C1=O` (centres unmarked) [Compound 17A-o] returned an IC50 of 1 to 100 µM. The same measure, in the same setting: as for `CCC1NC(=O)C(C2OC(Oc3cccc(OCc4ccc5c(c4)OCO5)c3)CC2C)N(C)C(=O)C(C(C)C)N(C)C(=O)C(CC(C)C)N(C)C(=O)C(CC(C)C)N(C)C(=O)C(C)NC(=O)C(C)NC(=O)C(CC(C)C)N(C)C(=O)C(C(C)C)NC(=O)C(CC(C)C)N(C)C(=O)CN(C)C1=O` (centres unmarked) [Compound 18A-o], the figure is 1 to 100 µM.

Staying with this assay, now noted: given as a range; assay not given.
In turn, `CCC1NC(=O)C(C2OC(Sc3cccc(OCc4ccccc4)c3)CC2C)N(C)C(=O)C(C(C)C)N(C)C(=O)C(CC(C)C)N(C)C(=O)C(CC(C)C)N(C)C(=O)C(C)NC(=O)C(C)NC(=O)C(CC(C)C)N(C)C(=O)C(C(C)C)NC(=O)C(CC(C)C)N(C)C(=O)CN(C)C1=O` [Compound 12A, [2-((2R,3R)-5-(3-(benzyloxy)phenylthio)-3-methyltetrahydrofuran-2-yl)-2-(methylamino)acetic acid]^1-cyclosporin A] had an IC50 of 0.001 to 1 µM. `CCC1NC(=O)C(C2OC(Sc3cccc(OCc4ccc(CN(C)C)cc4)c3)CC2C)N(C)C(=O)C(C(C)C)N(C)C(=O)C(CC(C)C)N(C)C(=O)C(CC(C)C)N(C)C(=O)C(C)NC(=O)C(C)NC(=O)C(CC(C)C)N(C)C(=O)C(C(C)C)NC(=O)C(CC(C)C)N(C)C(=O)CN(C)C1=O` [Compound 13A, [2-((2R,3R)-5-(3-(4-((dimethylamino)methyl)benzyloxy)phenylthio)-3-methyltetrahydrofuran-2-yl)-2-(methylamino)acetic acid]^1-cyclosporin A]: the IC50 is 0.001 to 1 µM. The compound `CCC1NC(=O)C(C2OC(Sc3cccc(OCc4ccn(C)c(=O)c4)c3)CC2C)N(C)C(=O)C(C(C)C)N(C)C(=O)C(CC(C)C)N(C)C(=O)C(CC(C)C)N(C)C(=O)C(C)NC(=O)C(C)NC(=O)C(CC(C)C)N(C)C(=O)C(C(C)C)NC(=O)C(CC(C)C)N(C)C(=O)CN(C)C1=O` [Compound 16A, [2-((2R,3R)-3-methyl-5-(3-((1-methyl-2-oxo-1,2-dihydropyridin-4-yl)methoxy)phenylthio)tetrahydrofuran-2-yl)-2-(methylamino)acetic acid]^1-cyclosporin A] yielded a half-inhibitory concentration (IC50) of 1 to 10 µM. Compound `CCC1NC(=O)C(C2OC(Sc3cccc(OCc4ccc5c(c4)OCO5)c3)CC2C)N(C)C(=O)C(C(C)C)N(C)C(=O)C(CC(C)C)N(C)C(=O)C(CC(C)C)N(C)C(=O)C(C)NC(=O)C(C)NC(=O)C(CC(C)C)N(C)C(=O)C(C(C)C)NC(=O)C(CC(C)C)N(C)C(=O)CN(C)C1=O` [Compound 18A, [2-((2R,3R)-5-(3-(benzo[d][1,3]dioxol-5-ylmethoxy)phenylthio)-3-methyltetrahydrofuran-2-yl)-2-(methylamino)acetic acid]^1-cyclosporin A] showed an IC50 of 0.001 to 1 µM. For `CCC1NC(=O)C(C2OC(Sc3cccc(OCc4ccccc4F)c3)CC2C)N(C)C(=O)C(C(C)C)N(C)C(=O)C(CC(C)C)N(C)C(=O)C(CC(C)C)N(C)C(=O)C(C)NC(=O)C(C)NC(=O)C(CC(C)C)N(C)C(=O)C(C(C)C)NC(=O)C(CC(C)C)N(C)C(=O)CN(C)C1=O` [Compound 19A, [2-((2R,3R)-5-(3-(2-fluorobenzyloxy)phenylthio)-3-methyltetrahydrofuran-2-yl)-2-(methylamino)acetic acid]^1-cyclosporin A], the IC50 was in the range of 0.001 to 1 µM.

Take `CCC1NC(=O)C(C2OC(Sc3cccc(OCc4cccc(F)c4)c3)CC2C)N(C)C(=O)C(C(C)C)N(C)C(=O)C(CC(C)C)N(C)C(=O)C(CC(C)C)N(C)C(=O)C(C)NC(=O)C(C)NC(=O)C(CC(C)C)N(C)C(=O)C(C(C)C)NC(=O)C(CC(C)C)N(C)C(=O)CN(C)C1=O` [Compound 20A, [2-((2R,3R)-5-(3-(3-fluorobenzyloxy)phenylthio)-3-methyltetrahydrofuran-2-yl)-2-(methylamino)acetic acid]^1-cyclosporin A]: the IC50 is 0.001 to 1 µM.

Take `CCC1NC(=O)C(C2OC(Sc3cccc(OCc4ccc(F)cc4)c3)CC2C)N(C)C(=O)C(C(C)C)N(C)C(=O)C(CC(C)C)N(C)C(=O)C(CC(C)C)N(C)C(=O)C(C)NC(=O)C(C)NC(=O)C(CC(C)C)N(C)C(=O)C(C(C)C)NC(=O)C(CC(C)C)N(C)C(=O)CN(C)C1=O` [Compound 21A, [2-((2R,3R)-5-(3-(4-fluorobenzyloxy)phenylthio)-3-methyltetrahydrofuran-2-yl)-2-(methylamino)acetic acid]^1-cyclosporin A]: the IC50 fell in the range of 0.001 to 1 µM.

Staying with this assay, now noted: given as a range; assay not given; read-out: IC50.
In the case of `CC[C@@H]1NC(=O)[C@H]([C@@H]2OC(Sc3cccc(OCc4ccc(-n5cccn5)cc4)c3)C[C@H]2C)N(C)C(=O)[C@H](C(C)C)N(C)C(=O)[C@H](CC(C)C)N(C)C(=O)[C@H](CC(C)C)N(C)C(=O)[C@@H](C)NC(=O)[C@H](C)NC(=O)[C@H](CC(C)C)N(C)C(=O)[C@H](C(C)C)NC(=O)[C@H](CC(C)C)N(C)C(=O)CN(C)C1=O` (stereo partly drawn) [Compound 17A, [2-((2R,3R)-5-(3-(4-(1H-pyrazol-1-yl)benzyloxy)phenylthio)-3-methyltetrahydrofuran-2-yl)-2-(methylamino)acetic acid]^1-cyclosporin A], the IC50 is 0.001 to 1 µM.
